In patent US20150087627A1, “COMBINATION OF KINASE INHIBITORS AND USES THEREOF” (Intellikine LLC, priority 2011, published 2015):
Counter-ions that a name gives are not always drawn. Like-named read-outs stand apart in the source and are kept apart here. *1 amine or outer side, *2 acyl side, *3 side chain or, on linkers, in order; H or OH if unused. Where a SMILES comes first, the peptide text is derived from it. Bridges are numbered along the chain shown (N, C = ends). Roman numbers before positions name the chains, in order. [ ]: non-standard residue; d: D form. Actinocin(9to1) = Cc1c2oc3c(C)ccc(C(=O)[*:1])c3nc-2c(C(=O)[*:2])c(N)c1=O; NMeV = CN[C@H](C(=O)O)C(C)C; Sar = CNCC(=O)O

Legend:
[1] = clinical use of the marketed drug; cited from earlier work
PI3K α (p110α/p85α) = target: T1, PI3K α (p110α/p85α) (Homo sapiens, UniProt P42336); test: PI 3-Kinase (human) HTRF assay, PI3K α; format: biochemical; details: read-out: PI3K α IC50
T1 construct: purchased Upstate / Millipore Corporation
T1 sequence (P42336 whole entry): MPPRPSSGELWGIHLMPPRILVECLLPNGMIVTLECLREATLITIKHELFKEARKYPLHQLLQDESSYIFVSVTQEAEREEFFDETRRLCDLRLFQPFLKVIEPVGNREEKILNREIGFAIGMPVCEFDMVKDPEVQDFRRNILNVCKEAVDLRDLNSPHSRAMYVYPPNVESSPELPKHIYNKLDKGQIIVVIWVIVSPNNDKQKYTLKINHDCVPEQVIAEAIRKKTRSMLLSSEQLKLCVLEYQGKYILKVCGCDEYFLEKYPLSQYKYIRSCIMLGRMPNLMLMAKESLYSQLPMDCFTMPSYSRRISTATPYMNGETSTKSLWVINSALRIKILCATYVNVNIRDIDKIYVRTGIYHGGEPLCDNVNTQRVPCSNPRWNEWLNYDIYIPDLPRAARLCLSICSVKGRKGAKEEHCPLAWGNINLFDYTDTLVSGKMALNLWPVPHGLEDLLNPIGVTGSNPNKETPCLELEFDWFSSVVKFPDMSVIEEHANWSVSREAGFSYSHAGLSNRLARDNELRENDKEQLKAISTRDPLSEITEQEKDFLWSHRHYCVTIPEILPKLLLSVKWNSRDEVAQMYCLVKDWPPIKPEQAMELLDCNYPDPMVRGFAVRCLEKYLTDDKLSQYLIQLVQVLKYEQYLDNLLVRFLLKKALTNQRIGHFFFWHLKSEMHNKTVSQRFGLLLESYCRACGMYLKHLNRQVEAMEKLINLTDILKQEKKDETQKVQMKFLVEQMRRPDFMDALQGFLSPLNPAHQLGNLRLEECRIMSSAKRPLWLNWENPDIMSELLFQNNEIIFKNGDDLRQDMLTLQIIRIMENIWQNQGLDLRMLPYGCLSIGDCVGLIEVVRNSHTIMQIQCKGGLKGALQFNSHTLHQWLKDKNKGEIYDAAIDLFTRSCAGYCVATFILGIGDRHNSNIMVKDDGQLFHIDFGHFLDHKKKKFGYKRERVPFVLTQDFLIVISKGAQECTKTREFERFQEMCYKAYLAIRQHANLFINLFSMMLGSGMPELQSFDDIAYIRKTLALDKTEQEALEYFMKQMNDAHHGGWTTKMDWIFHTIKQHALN
T1 sequence (P27986 whole entry partner): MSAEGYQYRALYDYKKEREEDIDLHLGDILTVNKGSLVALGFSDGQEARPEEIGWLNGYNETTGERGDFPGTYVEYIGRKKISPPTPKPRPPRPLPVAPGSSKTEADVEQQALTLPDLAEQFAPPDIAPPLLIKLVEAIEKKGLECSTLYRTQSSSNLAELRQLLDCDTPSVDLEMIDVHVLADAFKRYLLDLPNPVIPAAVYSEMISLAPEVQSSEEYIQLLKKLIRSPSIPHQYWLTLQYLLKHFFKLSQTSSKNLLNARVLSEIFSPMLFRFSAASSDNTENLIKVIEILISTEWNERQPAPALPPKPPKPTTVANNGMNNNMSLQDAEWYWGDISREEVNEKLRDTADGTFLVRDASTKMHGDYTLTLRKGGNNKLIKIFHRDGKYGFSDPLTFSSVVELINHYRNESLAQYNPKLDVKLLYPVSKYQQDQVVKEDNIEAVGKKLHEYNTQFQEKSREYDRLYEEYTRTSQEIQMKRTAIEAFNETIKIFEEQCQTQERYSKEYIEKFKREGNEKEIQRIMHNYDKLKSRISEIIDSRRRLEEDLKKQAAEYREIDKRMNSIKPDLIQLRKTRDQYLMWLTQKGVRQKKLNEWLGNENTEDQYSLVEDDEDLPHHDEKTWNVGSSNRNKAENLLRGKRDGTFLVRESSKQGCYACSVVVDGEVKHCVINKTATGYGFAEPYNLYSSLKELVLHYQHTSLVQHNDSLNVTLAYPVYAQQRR

mTOR = target: T2, mTOR (Homo sapiens, UniProt P42345); test: mTOR kinase inhibition assay (radiometric or LanthaScreen TR-FRET); format: biochemical; details: read-out: mTORC IC50
T2 construct: purchased Invitrogen
T2 sequence (P42345 1360-2549 limits assumed): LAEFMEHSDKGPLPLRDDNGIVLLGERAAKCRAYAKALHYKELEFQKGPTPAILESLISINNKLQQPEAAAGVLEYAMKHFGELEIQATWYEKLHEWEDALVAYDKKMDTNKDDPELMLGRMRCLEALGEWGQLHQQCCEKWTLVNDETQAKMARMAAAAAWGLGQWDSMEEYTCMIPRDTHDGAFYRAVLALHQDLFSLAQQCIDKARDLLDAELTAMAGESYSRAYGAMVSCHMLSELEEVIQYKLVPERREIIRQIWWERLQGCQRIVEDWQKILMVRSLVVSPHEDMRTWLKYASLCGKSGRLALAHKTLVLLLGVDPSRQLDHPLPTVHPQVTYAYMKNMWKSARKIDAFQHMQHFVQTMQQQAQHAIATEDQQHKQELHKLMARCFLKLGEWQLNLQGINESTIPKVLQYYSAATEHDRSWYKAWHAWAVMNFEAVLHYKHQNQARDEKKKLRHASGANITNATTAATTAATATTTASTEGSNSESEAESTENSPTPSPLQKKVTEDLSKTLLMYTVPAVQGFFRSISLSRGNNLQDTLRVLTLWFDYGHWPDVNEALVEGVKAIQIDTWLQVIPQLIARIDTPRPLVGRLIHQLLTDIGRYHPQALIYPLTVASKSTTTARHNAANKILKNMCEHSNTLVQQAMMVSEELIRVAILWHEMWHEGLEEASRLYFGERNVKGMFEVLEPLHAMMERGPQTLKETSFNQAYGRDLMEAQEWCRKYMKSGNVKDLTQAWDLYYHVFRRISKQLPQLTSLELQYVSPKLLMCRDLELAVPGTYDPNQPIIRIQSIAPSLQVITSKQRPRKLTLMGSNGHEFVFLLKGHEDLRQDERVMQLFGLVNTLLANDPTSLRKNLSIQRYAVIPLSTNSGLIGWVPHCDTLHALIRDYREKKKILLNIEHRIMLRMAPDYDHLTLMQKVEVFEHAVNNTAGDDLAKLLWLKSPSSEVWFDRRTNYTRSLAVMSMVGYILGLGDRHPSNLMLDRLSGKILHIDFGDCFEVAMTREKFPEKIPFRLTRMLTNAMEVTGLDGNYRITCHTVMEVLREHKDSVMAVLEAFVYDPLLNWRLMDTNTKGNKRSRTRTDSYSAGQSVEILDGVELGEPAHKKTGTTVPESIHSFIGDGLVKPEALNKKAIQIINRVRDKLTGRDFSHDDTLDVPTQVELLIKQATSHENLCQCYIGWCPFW
Method: The cross-activity or lack thereof of one or more compounds of the present invention against mTor can be measured according to any procedures known in the art or methods disclosed below.
The compounds described herein can be tested against recombinant mTOR (Invitrogen) in an assay containing 50 mM HEPES, pH 7.5, 1 mM EGTA, 10 mM MgCl2, 2.5 mM, 0.01% Tween, 10 μM ATP (2.5 μCi of μ-32P-ATP), and 3 μg/mL BSA. Rat recombinant PHAS-1/4EBP1 (Calbiochem; 2 mg/mL) is used as a substrate. Reactions are terminated by spotting onto nitrocellulose, which is washed with 1M NaCl/1% phosphoric acid (approximately 6 times, 5-10 minutes each). Sheets are dried and the transferred radioactivity quantitated by phosphorimaging.
For instance, one can use Invitrogen's LanthaScreen™ Kinase assay to test the inhibitors of mTOR disclosed herein. This assay is a time resolved FRET platform that measures the phosphorylation of GFP labeled 4EBP1 by mTOR kinase. The kinase reaction is performed in a white 384 well microtiter plate. The total reaction volume is 20 ul per well and the reaction buffer composition is 50 mM HEPES pH7.5, 0.01% Polysorbate 20, 1 mM EGTA, 10 mM MnCl2, and 2 mM DTT. In the first step, each well receives 2 ul of test compound in 20% dimethylsulphoxide resulting in a 2% DMSO final concentration. […] The plate is sealed and incubated for 1 hour at room temperature. […] The plate is sealed, incubated for 1 hour at room temperature, and then read on a plate reader set up for LanthaScreen™ TR-FRET. Data is analyzed and IC50s are generated using GraphPad Prism 5.

PI3K γ (p110γ) = target: T3, PI3K γ (p110γ) (Homo sapiens, UniProt P48736); test: PI 3-Kinase (human) HTRF assay, PI3K γ; format: biochemical; details: read-out: PI3K γ IC50
T3 construct: purchased Upstate / Millipore Corporation

PI3K β (p110β/p85α) = target: T4, PI3K β (p110β/p85α) (Homo sapiens, UniProt P42338); test: PI 3-Kinase (human) HTRF assay, PI3K β; format: biochemical; details: read-out: PI3K β IC50
T4 construct: purchased Upstate / Millipore Corporation
T4 sequence (P42338 whole entry): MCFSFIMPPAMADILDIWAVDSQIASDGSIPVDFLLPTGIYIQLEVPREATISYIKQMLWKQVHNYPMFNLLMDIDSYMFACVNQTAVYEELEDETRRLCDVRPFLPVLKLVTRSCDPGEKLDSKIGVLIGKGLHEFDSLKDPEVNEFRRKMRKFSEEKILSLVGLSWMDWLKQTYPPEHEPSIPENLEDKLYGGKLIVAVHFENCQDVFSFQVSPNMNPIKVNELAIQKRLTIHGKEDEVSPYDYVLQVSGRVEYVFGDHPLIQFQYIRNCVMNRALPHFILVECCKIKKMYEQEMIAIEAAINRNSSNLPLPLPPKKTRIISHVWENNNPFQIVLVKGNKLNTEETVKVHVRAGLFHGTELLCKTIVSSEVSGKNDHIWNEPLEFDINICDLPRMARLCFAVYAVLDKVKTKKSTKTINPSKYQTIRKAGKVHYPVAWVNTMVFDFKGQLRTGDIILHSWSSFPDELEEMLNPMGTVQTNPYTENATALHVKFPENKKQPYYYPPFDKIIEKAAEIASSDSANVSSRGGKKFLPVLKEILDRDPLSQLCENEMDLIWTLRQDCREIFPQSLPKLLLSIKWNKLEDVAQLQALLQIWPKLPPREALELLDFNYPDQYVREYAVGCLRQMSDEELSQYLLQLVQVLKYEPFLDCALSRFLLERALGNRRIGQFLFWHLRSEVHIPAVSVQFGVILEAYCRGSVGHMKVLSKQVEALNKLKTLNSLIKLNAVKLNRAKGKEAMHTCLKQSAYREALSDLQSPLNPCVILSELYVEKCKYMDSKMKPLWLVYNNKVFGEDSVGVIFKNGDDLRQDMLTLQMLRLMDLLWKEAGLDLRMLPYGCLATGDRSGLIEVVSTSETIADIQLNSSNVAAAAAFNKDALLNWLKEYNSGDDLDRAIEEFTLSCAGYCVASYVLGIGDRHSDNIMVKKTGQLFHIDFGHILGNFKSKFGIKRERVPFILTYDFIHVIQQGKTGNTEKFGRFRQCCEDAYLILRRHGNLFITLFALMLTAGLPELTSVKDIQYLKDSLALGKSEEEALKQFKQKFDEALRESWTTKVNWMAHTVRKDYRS
T4 sequence (P27986 whole entry partner): as the sequence (P27986 whole entry partner) above
Method: Briefly, the assay is a time resolved FRET assay that indirectly measures PIP3 product formed by the activity of a PI3-K. The kinase reaction is performed in a microtiter plate (e.g., a 384 well microtiter plate). The total reaction volume is approximately 20 ul per well. In the first step, each well receives 2 ul of test compound in 20% dimethylsulphoxide resulting in a 2% DMSO final concentration. […] The plate is sealed and incubated for 15 minutes at room temperature. […] The plate is sealed and incubated for 1 hour at room temperature. The reaction is stopped by adding 5 ul of Stop Solution per well and then 5 ul of Detection Mix is added per well. The plate is sealed, incubated for 1 hour at room temperature, and then read on an appropriate plate reader. Data is analyzed and IC50s are generated using GraphPad Prism 5.

PI3K δ = target: T5, PI3K δ (Homo sapiens, UniProt O00329); test: PI 3-Kinase (human) HTRF assay, PI3K δ; format: biochemical; details: read-out: PI3K δ IC50
T5 construct: purchased Upstate / Millipore Corporation

CCC1=C[C@@H]2CN(C1)Cc1c([nH]c3ccccc13)[C@@](C(=O)OC)(c1cc3c(cc1OC)N(C)[C@H]1[C@@](O)(C(=O)OC)[C@H](OC(C)=O)[C@]4(CC)C=CCN5CC[C@]31[C@@H]54)C2 (relative stereo) [vinorelbine, 3′,4′-didehydro-4′-deoxy-C′-norvincaleukoblastine [R—(R*,R*)-2,3-dihydroxybutanedioate (1:2)(salt)]]
dose limiting or most common side effect [1]: Myelosuppression

O=c1[nH]cc(F)c(=O)[nH]1 [5-fluorouracil, 5-fluoro-2,4-(1H,3H) pyrimidinedione]
dose limiting or most common side effect [1]: Myelosuppression and mucositis

Nc1nc2cc(-c3ccc4ncc(N5CC(N6CCN(CCO)CC6)C5)nc4c3)ccc2o1 [Compound 333]
IC50 (PI3K α (p110α/p85α)): < 0.1 µM | IC50 (mTOR): > 10 µM | IC50 (PI3K γ (p110γ)): < 10 µM | IC50 (PI3K β (p110β/p85α)): < 10 µM | IC50 (PI3K δ): < 1 µM

Nc1nc2cc(-c3ccc4ncc(N5CC(N6CCN(CC7CC7)CC6)C5)nc4c3)ccc2o1 [Compound 335]
IC50 (PI3K α (p110α/p85α)): < 0.1 µM | IC50 (mTOR): > 10 µM | IC50 (PI3K γ (p110γ)): > 10 µM | IC50 (PI3K β (p110β/p85α)): < 10 µM | IC50 (PI3K δ): < 10 µM

Nc1nc2cc(-c3ccc4ncc(N5CCC(n6ccnc6)CC5)nc4c3)ccc2o1 [Compound 345]
IC50 (PI3K α (p110α/p85α)): < 0.1 µM | IC50 (mTOR): < 10 µM | IC50 (PI3K γ (p110γ)): < 1 µM | IC50 (PI3K β (p110β/p85α)): < 1 µM | IC50 (PI3K δ): < 1 µM

Nc1nc2cc(-c3nc(N4CCOCC4)c4cnn(C5CCNCC5)c4n3)ccc2o1 [Compound 348]
IC50 (PI3K α (p110α/p85α)): < 1 µM | IC50 (mTOR): < 1 µM | IC50 (PI3K γ (p110γ)): < 1 µM | IC50 (PI3K β (p110β/p85α)): < 0.1 µM | IC50 (PI3K δ): < 10 µM

C[C@H]1CN(C2CN(c3cnc4ccc(-c5ccc6oc(N)nc6c5)cc4n3)C2)CCN1 [Compound 350]
IC50 (PI3K α (p110α/p85α)): < 0.1 µM | IC50 (mTOR): > 10 µM | IC50 (PI3K γ (p110γ)): > 10 µM | IC50 (PI3K β (p110β/p85α)): < 10 µM | IC50 (PI3K δ): < 10 µM

Cc1cc2oc(N)nc2cc1-c1ccc2ncc(N3CC(N4CCOCC4)C3)nc2c1 [Compound 353]
IC50 (PI3K α (p110α/p85α)): < 10 µM | IC50 (mTOR): > 10 µM | IC50 (PI3K γ (p110γ)): > 10 µM | IC50 (PI3K β (p110β/p85α)): > 10 µM | IC50 (PI3K δ): > 10 µM

Cc1nccn1C1CN(c2cnc3ccc(-c4ccc5oc(N)nc5c4)cc3n2)C1 [Compound 354]
IC50 (PI3K α (p110α/p85α)): < 0.1 µM | IC50 (mTOR): < 10 µM | IC50 (PI3K γ (p110γ)): < 10 µM | IC50 (PI3K β (p110β/p85α)): < 10 µM | IC50 (PI3K δ): < 10 µM

Nc1nc2cc(-c3ccc4ncc(N5CC(N6CCOCC6)C5)nc4c3)c(F)cc2o1 [Compound 373]
IC50 (PI3K α (p110α/p85α)): < 0.1 µM | IC50 (mTOR): > 10 µM | IC50 (PI3K γ (p110γ)): < 10 µM | IC50 (PI3K β (p110β/p85α)): < 10 µM | IC50 (PI3K δ): < 10 µM

CS(=O)(=O)N1CCN(C2CCN(c3cnc4ccc(-c5ccc6oc(N)nc6c5)cc4n3)CC2)CC1 [Compound 377]
IC50 (PI3K α (p110α/p85α)): < 0.1 µM | IC50 (mTOR): < 10 µM | IC50 (PI3K γ (p110γ)): < 1 µM | IC50 (PI3K β (p110β/p85α)): < 10 µM | IC50 (PI3K δ): < 10 µM

CN1CCN([C@@H]2CCN(c3cnc4ccc(-c5ccc6oc(N)nc6c5)cc4n3)C2)CC1 [Compound 379]
IC50 (PI3K α (p110α/p85α)): < 0.1 µM | IC50 (mTOR): < 10 µM | IC50 (PI3K γ (p110γ)): > 10 µM | IC50 (PI3K β (p110β/p85α)): < 1 µM | IC50 (PI3K δ): < 10 µM

COc1ncc(-c2ccc3ncc(C(=O)N4CCOCC4)n3c2)cc1NS(=O)(=O)c1ccc(F)cc1F [Compound 417]
IC50 (PI3K α (p110α/p85α)): < 0.1 µM | IC50 (mTOR): < 1 µM | IC50 (PI3K γ (p110γ)): < 0.1 µM | IC50 (PI3K β (p110β/p85α)): < 0.1 µM | IC50 (PI3K δ): < 0.1 µM

O=C(c1cnc2ccc(-c3cnc(Cl)c(NS(=O)(=O)c4ccc(F)cc4F)c3)cn12)N1CCOCC1 [Compound 419]
IC50 (PI3K α (p110α/p85α)): < 0.1 µM | IC50 (mTOR): < 1 µM | IC50 (PI3K γ (p110γ)): < 0.1 µM | IC50 (PI3K β (p110β/p85α)): < 0.1 µM | IC50 (PI3K δ): < 0.1 µM

NCC(=O)N1CCN(c2cnc3ccc(-c4ccc5oc(N)nc5c4)nc3c2)CC1 [Compound 588]
IC50 (PI3K α (p110α/p85α); Table 4 (PI3K α inhibitors)): < 0.1 µM | IC50 (mTOR; Table 4 (PI3K α inhibitors)): > 10 µM | IC50 (PI3K γ (p110γ); Table 4 (PI3K α inhibitors)): < 1 µM | IC50 (PI3K β (p110β/p85α); Table 4 (PI3K α inhibitors)): < 1 µM | IC50 (PI3K δ; Table 4 (PI3K α inhibitors)): < 1 µM

Nc1nc2cc(-c3ccc4ncc(N5CCN(C(=O)C6(N)CC6)CC5)nc4n3)ccc2o1 [Compound 592]
IC50 (PI3K α (p110α/p85α); Table 4 (PI3K α inhibitors)): < 0.1 µM | IC50 (mTOR; Table 4 (PI3K α inhibitors)): < 10 µM | IC50 (PI3K γ (p110γ); Table 4 (PI3K α inhibitors)): < 0.1 µM | IC50 (PI3K β (p110β/p85α); Table 4 (PI3K α inhibitors)): < 10 µM | IC50 (PI3K δ; Table 4 (PI3K α inhibitors)): < 10 µM

CC(C)(N)C(=O)N1CCN(c2cnc3ccc(-c4ccc5oc(N)nc5c4)nc3c2)CC1 [Compound 594]
IC50 (PI3K α (p110α/p85α); Table 4 (PI3K α inhibitors)): < 0.1 µM | IC50 (mTOR; Table 4 (PI3K α inhibitors)): > 10 µM | IC50 (PI3K γ (p110γ); Table 4 (PI3K α inhibitors)): < 1 µM | IC50 (PI3K β (p110β/p85α); Table 4 (PI3K α inhibitors)): < 10 µM | IC50 (PI3K δ; Table 4 (PI3K α inhibitors)): < 1 µM

CC(C)N1CCN(c2cnc3ccc(-c4ccc5oc(N)nc5c4)nc3c2)CC1 [Compound 595]
IC50 (PI3K α (p110α/p85α); Table 4 (PI3K α inhibitors)): < 0.1 µM | IC50 (mTOR; Table 4 (PI3K α inhibitors)): > 10 µM | IC50 (PI3K γ (p110γ); Table 4 (PI3K α inhibitors)): < 1 µM | IC50 (PI3K β (p110β/p85α); Table 4 (PI3K α inhibitors)): < 1 µM | IC50 (PI3K δ; Table 4 (PI3K α inhibitors)): < 1 µM

CC(C)N1CCN(C2CN(c3cnc4ccc(-c5ccc6oc(N)nc6c5)nc4c3)C2)CC1 [Compound 623]
IC50 (PI3K α (p110α/p85α); Table 4 (PI3K α inhibitors)): < 0.1 µM | IC50 (mTOR; Table 4 (PI3K α inhibitors)): > 10 µM | IC50 (PI3K γ (p110γ); Table 4 (PI3K α inhibitors)): < 10 µM | IC50 (PI3K β (p110β/p85α); Table 4 (PI3K α inhibitors)): < 1 µM | IC50 (PI3K δ; Table 4 (PI3K α inhibitors)): < 1 µM

CN1CCN(C2CN(c3cnc4ccc(-c5ccc6oc(N)nc6c5)nc4c3)C2)CC1 [Compound 625]
IC50 (PI3K α (p110α/p85α); Table 4 (PI3K α inhibitors)): < 0.1 µM | IC50 (mTOR; Table 4 (PI3K α inhibitors)): > 10 µM | IC50 (PI3K γ (p110γ); Table 4 (PI3K α inhibitors)): < 1 µM | IC50 (PI3K β (p110β/p85α); Table 4 (PI3K α inhibitors)): < 1 µM | IC50 (PI3K δ; Table 4 (PI3K α inhibitors)): < 1 µM

CS(=O)(=O)OCCCCOS(C)(=O)=O [busulfan, 1,4-butanediol dimethanesulfonate]
dose limiting or most common side effect [1]: Bone marrow suppression

N.N.O=C([O-])C1(C(=O)[O-])CCC1.[Pt+2] [carboplatin, platinum, diamine [1,1-cyclobutane-dicarboxylate(2-)-O,O′]]
dose limiting or most common side effect [1]: Bone marrow suppression

O=C(O)CCCc1ccc(N(CCCl)CCCl)cc1 [chlorambucil]
dose limiting or most common side effect [1]: Bone marrow suppression

N.N.[Cl][Pt][Cl] [cisplatin, cis-diamminedichloroplatinum]
dose limiting or most common side effect [1]: nephrotoxicity, which may be controlled by hydration and diuresis, and ototoxicity

O.O=P1(N(CCCl)CCCl)NCCCO1 (stereo not drawn) [cyclophosphamide, 2-[bis(2-chloroethyl)amino]tetrahydro-2H-1,3,2-oxazaphosphorine 2-oxide monohydrate]
dose limiting or most common side effect [1]: Alopecia, nausea, vomiting and leukopenia

CN(C)N=Nc1[nH]cnc1C(N)=O [dacarbazine, 5-(3,3-dimethyl-1-triazeno)-imidazole-4-carboxamide]
dose limiting or most common side effect [1]: Nausea, vomiting, and anorexia

Cc1c2oc3c(C)ccc(C(=O)N[C@@H]4C(=O)N[C@H](C(C)C)C(=O)N5CCC[C@H]5C(=O)N(C)CC(=O)N(C)[C@@H](C(C)C)C(=O)O[C@@H]4C)c3nc-2c(C(=O)N[C@@H]2C(=O)N[C@H](C(C)C)C(=O)N3CCC[C@H]3C(=O)N(C)CC(=O)N(C)[C@@H](C(C)C)C(=O)O[C@@H]2C)c(N)c1=O [dactinomycin] (I: T[dV]P[Sar][NMeV] / II: T[dV]P[Sar][NMeV]; ester I:1-I:C, II:1-II:C; linker I:N-II:N via Actinocin(9to1))
dose limiting or most common side effect [1]: Nausea, vomiting, and anorexia

COc1cccc2c1C(=O)c1c(O)c3c(c(O)c1C2=O)C[C@@](O)(C(C)=O)C[C@@H]3O[C@H]1C[C@H](N)[C@H](O)[C@H](C)O1 [daunorubicin, (8S-cis-)-8-acetyl-10-[(3-amino-2,3,6-trideoxy-α-L-lyxo-hexopyranosyl)oxy]-7,8,9,10-tetrahydro-6,8,11-trihydroxy-1-methoxy-5,12 naphthacenedione hydrochloride]
dose limiting or most common side effect [1]: Myelosuppression

CC(=O)O[C@@]12CO[C@@H]1C[C@H](O)[C@@]1(C)C(=O)[C@H](O)C3=C(C)[C@@H](OC(=O)[C@H](O)[C@@H](NC(=O)OC(C)(C)C)c4ccccc4)C[C@@](O)([C@@H](OC(=O)c4ccccc4)[C@H]21)C3(C)C [docetaxel, (2R,3S)—N-carboxy-3-phenylisoserine, N-tert-butyl ester, 13-ester with 5β-20-epoxy-1,2α,4,7β,10β,13α-hexahydroxytax-1-1-en-9-one 4-acetate 2-benzoate, trihydrate]
dose limiting or most common side effect [1]: neutropenia

COc1cccc2c1C(=O)c1c(O)c3c(c(O)c1C2=O)C[C@@](O)(C(=O)CO)C[C@@H]3O[C@H]1C[C@H](N)[C@H](O)[C@H](C)O1.Cl [doxorubicin, (8S,10S)-10-[(3-amino-2,3,6-trideoxy-α-L-lyxo-hexopyranosyl)oxy]-8-glycoloyl, 7,8,9,10-tetrahydro-6,8,11-trihydroxy-1-methoxy-5,12 naphthacenedione hydrochloride]
dose limiting or most common side effect [1]: Myelosuppression
